Measurements from patent US10829520B2, “Beta-hairpin peptidomimetics” (POLYPHOR AG, priority 2015, dated 2020).
Where a SMILES comes first, the peptide text is derived from it. Bridges are numbered along the chain shown (N, C = ends). [ ]: non-standard residue; d: D form. Ala(cPent) = N[C@@H](CC1CCCC1)C(=O)O; Tle = CC(C)(C)[C@H](N)C(=O)O; dNle = CCCC[C@@H](N)C(=O)O; dDab = NCC[C@@H](N)C(=O)O; Nle = CCCC[C@H](N)C(=O)O; Orn = NCCC[C@H](N)C(=O)O; Dab = NCC[C@H](N)C(=O)O; Sar = CNCC(=O)O

How the values were obtained:
Assay type in all cases: cell-based
[1] = test system: human red blood cells (hRBC); assay: Hemolysis of human red blood cells; details: red cells of human, 1 h
Experimental: (§1) Lyophilized peptides were weighed on a Microbalance (Mettler MT5) and dissolved in sterile water to a final concentration of 1 mg/mL. Stock solutions were kept at +4° C., light protected.
The peptides were tested for their hemolytic activity against human red blood cells (hRBC). Fresh hRBC were washed three times with phosphate buffered saline (PBS) and centrifuged for 10 min at 2000×g. Compounds (100 μg/mL) were incubated with 20% hRBC (v/v) for 1 h at 37° C. and shaking at 300 rpm. The final erythrocyte concentration was approximately 0.9×10^9 cells/mL. A value of 0% and 100% cell lyses, respectively, was determined by incubation of hRBC in the presence of PBS containing 0.001% acetic acid and 2.5% Triton X-100 in H2O, respectively. The samples were centrifuged, the supernatants were 8-fold diluted in PBS buffer and the optical densities (OD) were measured at 540 nm. The 100% lyses value (OD540H2O) gave an OD540 of approximately 0.5-1.0.
Percent hemolysis was calculated as follows: (OD540peptide/OD540H2O)×100%.

[2] = test system: Acinetobacter baumannii DSM 30008; details: DSM 30008
Experimental: as §1
(§2) The in vitro antimicrobial activities of the peptides were determined in 96-well plates (Greiner, polystyrene) by the standard CLSI broth microdilution method (Clinical and Laboratory Standards Institute 2014. Performance standards for antimicrobial susceptibility testing, 24th informational supplement. Approved standard CLSI M100-S24; Clinical and Laboratory Standards Institute, Wayne, Pa.). Inocula of the microorganisms were diluted into Mueller-Hinton II (MH-cation adjusted) broth and compared with a 0.5 McFarland standard to give appr. 10^6 colony forming units (CFU)/mL. Aliquots (90 μL) of inoculate were added to 10 μL of MH-II broth+P-80 (Polysorbate 80, 0.002% final concentration, v/v) containing the peptide in serial two-fold dilutions. The following microorganisms were used to determine antibiotic activity of the peptides: Escherichia coli ATCC 25922, Klebsiella pneumoniae SSI #3010^a), Acinetobacter baumannii DSM 30008, Pseudomonas aeruginosa ATCC 27853 and the clinical isolates Escherichia coli 926415^b), Klebsiella pneumoniae 968733^b) and Acinetobacter baumannii 872842^b). Antimicrobial activities of the peptides were expressed as the minimal inhibitory concentration (MIC) in μg/mL at which no visible growth was observed after 18-20 hours of incubation at 35° C. ^a) Obtained from Statens Serum Institut (SSI), Copenhagen, Denmark^b) Obtained from International Health Management Associates, Inc. (IHMA Europe Sàrl), Epalinges, Switzerland

[3] = test system: Escherichia coli ATCC 25922; details: ATCC 25922
Experimental: as §1, §2

[4] = test system: Pseudomonas aeruginosa ATCC 27853; details: ATCC 27853
Experimental: as §1, §2

[5] = test system: Klebsiella pneumoniae SSI #3010; details: SSI #3010
Experimental: as §1, §2

SMILES	Hemolysis at 100 μg/mL ([1]; 100 μg/mL)	Acinetobacter baumannii DSM 30008 MIC [2]	Escherichia coli ATCC 25922 MIC [3]	Pseudomonas aeruginosa ATCC 27853 MIC [4]	Klebsiella pneumoniae SSI #3010 MIC [5]	Hemolysis at 100 μg/mL [1]; 100
CC(C)C[C@@H]1NC(=O)[C@@H](CC(C)C)NC(=O)[C@H](CCN)NC(=O)[C@@H](NC(=O)[C@H](CCN)NC(=O)[C@@H](NC(=O)[C@H](CCN)NC(=O)CN(C)C(=O)[C@@H]2CSSC[C@H](NC(=O)[C@@H](N)Cc3c[nH]c4ccccc34)C(=O)N[C@@H](C(C)C)C(=O)N[C@@H](C)C(=O)N[C@@H](CO)C(=O)N3CCC[C@@H]3C(=O)N3CCC[C@H]3C(=O)N[C@@H](CC(C)C)C(=O)N[C@@H](CO)C(=O)N[C@@H](Cc3ccc(O)cc3)C(=O)N2)[C@@H](C)O)CCNC(=O)[C@@H](C(C)C)NC(=O)[C@H](CCN)NC(=O)[C@H](CCN)NC1=O [Ex. 180] (H-WCVAS[dP]PLSYC[Sar][Dab]T[Dab][Dab][Dab][dL]L[Dab][Dab][dV]; disulfide 2-11; lactam 16-C)	<1%	0.25 µg/mL	0.125 µg/mL	1 µg/mL	0.125 µg/mL	
CC(C)C[C@@H]1NC(=O)[C@@H](CC(C)C)NC(=O)[C@H](CCN)NC(=O)[C@@H](NC(=O)[C@H](CCN)NC(=O)[C@@H](NC(=O)[C@H](CCN)NC(=O)CN(C)C(=O)[C@@H]2CSSC[C@H](NC(=O)[C@@H](N)Cc3c[nH]c4ccccc34)C(=O)N[C@@H](C(C)C)C(=O)N[C@@H](C)C(=O)N[C@@H](CO)C(=O)N3CCC[C@@H]3C(=O)N3CCC[C@H]3C(=O)N[C@@H](CC(C)C)C(=O)N[C@@H](CO)C(=O)N[C@@H](Cc3ccc(O)cc3)C(=O)N2)[C@@H](C)O)CCNC(=O)[C@H](CCCNC(=N)N)NC(=O)[C@H](CCN)NC(=O)[C@H](CCN)NC1=O [Ex. 181] (H-WCVAS[dP]PLSYC[Sar][Dab]T[Dab][Dab][Dab][dL]L[Dab][Dab]R; disulfide 2-11; lactam 16-C)	<1%	0.125 µg/mL	0.0625 µg/mL	0.5 µg/mL	0.125 µg/mL	
CC(C)C[C@@H]1NC(=O)[C@@H](CC(C)C)NC(=O)[C@H](CCN)NC(=O)[C@@H](NC(=O)[C@H](CCN)NC(=O)[C@@H](NC(=O)[C@H](CCN)NC(=O)CN(C)C(=O)[C@@H]2CSSC[C@H](NC(=O)[C@@H](N)Cc3c[nH]c4ccccc34)C(=O)N[C@@H](C(C)C)C(=O)N[C@@H](C)C(=O)N[C@@H](CO)C(=O)N3CCC[C@@H]3C(=O)N3CCC[C@H]3C(=O)N[C@@H](CC(C)C)C(=O)N[C@@H](CO)C(=O)N[C@@H](Cc3ccc(O)cc3)C(=O)N2)[C@@H](C)O)CCNC(=O)[C@@H](CCCNC(=N)N)NC(=O)[C@H](CCN)NC(=O)[C@H](CCN)NC1=O [Ex. 182] (H-WCVAS[dP]PLSYC[Sar][Dab]T[Dab][Dab][Dab][dL]L[Dab][Dab][dR]; disulfide 2-11; lactam 16-C)	1%	0.75 µg/mL	0.5 µg/mL	4 µg/mL	0.5 µg/mL	
CC(C)C[C@@H]1NC(=O)[C@@H](Cc2ccccc2)NC(=O)[C@H](CCN)NC(=O)[C@@H](NC(=O)[C@H](CCN)NC(=O)[C@H](CCCN)NC(=O)[C@@H]2CSSC[C@H](NC(=O)[C@H](Cc3c[nH]c4ccccc34)NC(=O)CN)C(=O)N[C@@H](C(C)(C)C)C(=O)N[C@@H](C)C(=O)N[C@@H](CO)C(=O)N3CCC[C@@H]3C(=O)N3CCC[C@H]3C(=O)N[C@@H](CC3CCCC3)C(=O)N[C@@H](CO)C(=O)N[C@@H](Cc3ccc(O)cc3)C(=O)N2)CCNC(=O)[C@H]([C@@H](C)O)NC(=O)[C@H](CCN)NC(=O)[C@H](CCN)NC1=O [Ex. 183] (H-GWC[Tle]AS[dP]P[Ala(cPent)]SYC[Orn][Dab][Dab][Dab][dF]L[Dab][Dab]T; disulfide 3-12; lactam 15-C)	2%	0.25 µg/mL	0.125 µg/mL	0.5 µg/mL	0.125 µg/mL	
CCCC[C@@H]1NC(=O)[C@@H]2CCCN2C(=O)[C@H]2CCCN2C(=O)[C@H](CO)NC(=O)[C@H](C)NC(=O)[C@H](C(C)(C)C)NC(=O)[C@@H](NC(=O)[C@@H](N)Cc2c[nH]c3ccccc23)CCNC(=O)C[C@@H](C(=O)N[C@@H](CCCN)C(=O)N[C@@H](CCN)C(=O)N[C@H]2CCNC(=O)[C@H]([C@@H](C)O)NC(=O)[C@H](CCN)NC(=O)[C@H](CCN)NC(=O)[C@H](CC(C)C)NC(=O)[C@@H](Cc3ccccc3)NC(=O)[C@H](CCN)NC2=O)NC(=O)[C@H](Cc2ccc(O)cc2)NC(=O)[C@H](CO)NC1=O [Ex. 190] (H-W[Dab][Tle]AS[dP]P[Nle]SYD[Orn][Dab][Dab][Dab][dF]L[Dab][Dab]T; lactam 2-11, 14-C)		0.5 µg/mL	0.5 µg/mL	1 µg/mL	0.5 µg/mL	<1%
CCCC[C@@H]1NC(=O)[C@@H]2CCCN2C(=O)[C@H]2CCCN2C(=O)[C@H](CO)NC(=O)[C@H](C)NC(=O)[C@H](C(C)(C)C)NC(=O)[C@@H](NC(=O)[C@@H](N)Cc2c[nH]c3ccccc23)CSSC[C@@H](C(=O)N[C@@H](CCCN)C(=O)N[C@@H](CCN)C(=O)N[C@H]2CCNC(=O)[C@H]([C@@H](C)O)NC(=O)[C@H](CCN)NC(=O)[C@H](CCN)NC(=O)[C@H](CC(C)C)NC(=O)[C@@H](CCCC)NC(=O)[C@H](CCN)NC2=O)NC(=O)[C@H](Cc2ccc(O)cc2)NC(=O)[C@H](CO)NC1=O [Ex. 192] (H-WC[Tle]AS[dP]P[Nle]SYC[Orn][Dab][Dab][Dab][dNle]L[Dab][Dab]T; disulfide 2-11; lactam 14-C)	5%	0.25 µg/mL	0.25 µg/mL	2 µg/mL	0.25 µg/mL	
CCCC[C@@H]1NC(=O)[C@@H]2CCCN2C(=O)[C@H]2CCCN2C(=O)[C@H](CO)NC(=O)[C@H](C)NC(=O)[C@H](C(C)(C)C)NC(=O)[C@H](CCN)NC(=O)[C@H](Cc2c[nH]c3ccccc23)NC(=O)[C@@H](N)CSSC[C@@H](C(=O)N[C@H](CCN)C(=O)N[C@H]2CCNC(=O)[C@H]([C@@H](C)O)NC(=O)[C@H](CCN)NC(=O)[C@H](CCN)NC(=O)[C@H](CC(C)C)NC(=O)[C@@H](CC(C)C)NC(=O)[C@H](CCN)NC2=O)NC(=O)[C@H](CCCN)NC(=O)[C@H](CCN)NC(=O)[C@H](Cc2ccc(O)cc2)NC(=O)[C@H](CO)NC1=O [Ex. 195] (H-CW[Dab][Tle]AS[dP]P[Nle]SY[Dab][Orn]C[dDab][Dab][Dab][dL]L[Dab][Dab]T; disulfide 1-14; lactam 16-C)	<1%	0.5 µg/mL	0.125 µg/mL	1 µg/mL	0.125 µg/mL	
CC(C)C[C@@H]1NC(=O)[C@@H](CC(C)C)NC(=O)[C@H](CCN)NC(=O)[C@@H](NC(=O)[C@@H](CCN)NC(=O)[C@@H]2CSSC[C@H](N)C(=O)N[C@@H](Cc3c[nH]c4ccccc34)C(=O)N[C@@H](CCN)C(=O)N[C@@H](C(C)(C)C)C(=O)N[C@@H](C)C(=O)N[C@@H](CO)C(=O)N3CCC[C@@H]3C(=O)N3CCC[C@H]3C(=O)N[C@@H](CC(C)C)C(=O)N[C@@H](CO)C(=O)N[C@@H](Cc3ccc(O)cc3)C(=O)N[C@@H](CCN)C(=O)N(C)CC(=O)N2)CCNC(=O)[C@H]([C@@H](C)O)NC(=O)[C@H](CCN)NC(=O)[C@H](CCN)NC1=O [Ex. 206] (H-CW[Dab][Tle]AS[dP]PLSY[Dab][Sar]C[dDab][Dab][Dab][dL]L[Dab][Dab]T; disulfide 1-14; lactam 16-C)	1%	4 µg/mL	0.5 µg/mL	4 µg/mL	1 µg/mL	
